Values after ≈ are worked out from the molar mass of the structure shown.
settings: buffer; pH 7.4; 200.0 µM

Structure (SMILES)	solubility kinetic [µg/mL]
COc1cc(OC)cc(C(=O)Nc2ccc3c(c2)OCCO3)c1	44.8 (≈ 142 µM)
OCCNc1nc(Cl)nc(NCc2ccco2)n1	> 40.5
COc1ccc(CCC(C)NCc2cccc(Br)c2)cc1 (stereo not drawn)	34.1 (≈ 97.9 µM)
CCc1ccccc1NC(=O)N1C[C@H]2C[C@@H](C1)c1cccc(=O)n1C2	> 50.6
CCN(CC(=O)Nc1ccc(C(C)=O)cc1)CC(=O)Nc1ccc2c(c1)OCCO2.O=C(O)C(=O)O	> 75.2
N#Cc1ccccc1NC(=O)COc1ccccc1C(=O)Nc1ccccc1	6.6 (≈ 17.8 µM)
O=C(CSc1nnc2ccccn12)c1ccc(Cl)cc1	> 45.6
Cc1ccc(C)c(C(=O)CCC(=O)Nc2ccc(F)cc2)c1	1 (≈ 3.34 µM)
COc1cc(CNC(C)(C)C)ccc1OCC(=O)NC(C)(C)C	> 48.4
CC1(C)Cc2c(C#N)c(SCCO)nc(N3CCOCC3)c2CO1	> 52.4
Fc1ccc(-c2csc(-c3cccnc3)n2)cc1F	0.7 (≈ 2.55 µM)
CNC(=O)c1ccc(NC(=O)/C=C/c2cccc(F)c2)cc1	1.4 (≈ 4.69 µM)
CN(C)S(=O)(=O)c1cccc(C(=O)Nc2ccc(C(=O)Nc3cccc(S(N)(=O)=O)c3)cc2)c1	9 (≈ 17.9 µM)
COc1ccc(C(=O)NCC(=O)OCC(=O)NC23CC4CC(CC(C4)C2)C3)cc1	> 60.1
NC1=NC(=O)C(Cc2ccc(Br)cc2)S1 (stereo not drawn)	36.5 (≈ 128 µM)
CC(CN1CCCCC1)OC(=O)c1ccco1.Cl (stereo not drawn)	> 41.1
O=C(COC(=O)c1ccc2ccccc2n1)Nc1ccccc1F	8.9 (≈ 27.4 µM)
O=C1N(c2ccccc2)C(c2cccnc2)N2CCCN12 (stereo not drawn)	> 42
CCOC(=O)Cc1csc(NC(=O)CCCC(=O)O)n1	> 45
CN(CC(=O)Nc1ccc(F)cc1)C(=O)c1ccc(OCc2cn3ccccc3n2)cc1	10.4 (≈ 24 µM)
COc1cc(NC(=O)Cn2c([N+](=O)[O-])cnc2C)c(OC)cc1Cl	45.3 (≈ 128 µM)
Cc1ccc(S(=O)(=O)N(C)C(C)CCc2ccco2)cc1 (stereo not drawn)	26.2 (≈ 85.2 µM)
O=C(NC1CCCCC1)C1CC(=O)N(Cc2ccccc2)C1 (stereo not drawn)	> 45.1
CC1CN(C(=S)Nc2ccc(S(N)(=O)=O)cc2)CC(C)O1 (stereo not drawn)	> 49.4

Next, values leading:

solubility kinetic [µg/mL]	Structure (SMILES)
> 50.6	CCOP(=O)(c1ccc(N(C)C)cc1)C(O)c1ccccc1F (stereo not drawn)
1.9 (≈ 5.44 µM)	Cc1sc2c(c1C)C(=O)/C(=C\Nc1ccncc1)S(=O)(=O)N2C
37.7 (≈ 117 µM)	CCN(CC)Cc1c(O)ccc2occ(C(=O)c3ccccc3)c12
27.2 (≈ 111 µM)	CCN1CCN(C/C(C)=C/c2ccccc2)CC1
> 46.3	Cc1cccc(NC(=O)CCN2C(=O)c3ccccc3C2=O)c1
1.2 (≈ 4.16 µM)	Cc1cnc(NC(=O)COc2ccc3c(c2)CCC3)s1
17.4 (≈ 48.8 µM)	O=S(=O)(c1ccc(Br)c2ccccc12)N1CCOCC1
3.1 (≈ 8.87 µM)	C=CCNC(=S)Nc1nc2c(cc1C(=O)OCC)COC(C)(C)C2
< 0.3	Cn1c(=S)[nH]c2sc3c(c2c1=O)CCC(C(C)(C)C)C3 (stereo not drawn)
> 48.5	Cc1c(S(=O)(=O)NCc2ccccc2)c(=O)n(C)c(=O)n1C
1 (≈ 3.31 µM)	Nc1cc(=O)[nH]c(SCc2ccc(Cl)cc2Cl)n1
11.2 (≈ 36.4 µM)	CC(=O)c1cccc(N=Cc2c(O)c3ccccc3oc2=O)c1
> 61.7	O=[N+]([O-])c1ccccc1S(=O)(=O)Nc1cccc(S(=O)(=O)N2CCCC2)c1
< 0.5	Clc1ccccc1-c1ncc(-c2ccccc2)o1
5.8 (≈ 19.1 µM)	CCC(C(=O)Nc1ccsc1C(=O)OC)c1ccccc1 (stereo not drawn)
1.6 (≈ 4.54 µM)	O=S(=O)(c1ccc(Br)cc1)N1CCCc2ccccc21
47.2 (≈ 133 µM)	CCN(CC(=O)NCc1ccc(F)cc1)C(=O)c1cc2ccccc2o1

solubility kinetic [µg/mL]	Structure (SMILES)
> 44.6	COc1ccc(-n2cnc3ccccc3c2=O)c([N+](=O)[O-])c1
< 0.6	CC(C)(C)C(=O)OCc1nc(-c2ccc(F)cc2)cs1
> 49.1	COc1cccc(/C=C(\C)C(=O)c2c(C)cc(C)[nH]c2=O)c1OC
3.4 (≈ 10.7 µM)	COc1ccc(/C=C/c2c([N+](=O)[O-])c(=O)n(C)c(=O)n2C)cc1
15.2	Cl.Oc1ccc(-c2csc(Nc3cccc4ccccc34)n2)cc1O
34.5 (≈ 105 µM)	CCOC(=O)CC(NC(=O)c1ccccc1F)c1ccc(C)cc1 (stereo not drawn)
31 (≈ 138 µM)	Cn1c(=O)[nH]c(=O)c2c1nc1n2CCS1
28.4 (≈ 131 µM)	CC(=O)c1sc(-c2ccccc2)cc1N
3 (≈ 11 µM)	Cn1c(=S)[nH]c2c(c1=O)C(C)(C)Cc1ccccc1-2
> 58.7	Cc1ccc(N(Cc2ccccc2)C(=O)CN2C(=O)NC3(CCCC3)C2=O)cc1
18.9 (≈ 71.8 µM)	CCOC(=O)c1cc2cc([N+](=O)[O-])ccc2oc1=O
> 32.7	CCCC1(c2ccccc2)NC(=O)NC1=O (stereo not drawn)
> 41.6	COc1ccccc1CC(=O)Nc1ccc(F)cc1F
18 (≈ 38.5 µM)	COC(=O)c1cc(NC(=O)COC(=O)CCc2nc3ccccc3c(=O)[nH]2)cc(C(=O)OC)c1
> 44.6	N#Cc1ccccc1CN1C(=O)NC2(CCCCCC2)C1=O
14.4 (≈ 48.8 µM)	COc1ccc(OCCn2cc(C=O)c3ccccc32)cc1
> 52.3	O=C(NCCc1ccccc1Cl)C1CC(=O)N(C2CCCCC2)C1 (stereo not drawn)
